Data as given in patent publication US8772318B2, “Methods and compositions related to targeting monoacylglycerol lipase” (The Scripps Research Institute, priority 2008, dated 2014).

Key:
ABHD6 = biological target: T1, ABHD6 (Mus musculus, UniProt Q8R2Y0); test: Competitive ABPP, mouse brain membrane proteome; format: biochemical
T1 construct: from tissue; host or cells: mouse brain membrane fraction
T1 sequence (Q8R2Y0 1-336): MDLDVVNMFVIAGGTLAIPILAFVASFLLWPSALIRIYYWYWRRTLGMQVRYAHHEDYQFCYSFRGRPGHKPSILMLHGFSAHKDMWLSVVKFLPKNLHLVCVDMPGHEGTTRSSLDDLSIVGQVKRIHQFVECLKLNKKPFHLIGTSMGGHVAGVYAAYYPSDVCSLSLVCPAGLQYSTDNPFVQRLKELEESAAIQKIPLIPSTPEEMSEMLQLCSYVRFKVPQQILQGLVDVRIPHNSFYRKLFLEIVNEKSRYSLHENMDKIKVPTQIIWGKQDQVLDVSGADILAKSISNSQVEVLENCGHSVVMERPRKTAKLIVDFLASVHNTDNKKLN
Source text: (§1) First, serine hydrolases are susceptible to covalent inactivation by specific chemical groups that show little or no cross-reactivity with other enzyme classes. […] Second, the functional state of serine hydrolases can be collectively profiled in native biological systems using activity-based protein profiling (ABPP) methods (Cravat et al., Annu Rev Biochem 77:383-414, 2008). ABPP of serine hydrolases uses reporter-tagged fluorophosphonates (FPs), which serve as general activity-based probes for this large and diverse enzyme class (Liu et al., Proc. Natl. Acad. Sci. U.S.A. 96:14694-9, 1999). When performed in a competitive mode, ABPP can serve as a powerful screen to evaluate the potency and selectivity of small-molecule enzyme inhibitors directly in complex proteomes. The screen can be performed as described in the art, e.g., Liu et al., Proc. Natl. Acad. Sci. U.S.A. 96:14694-9, 1999; Li et al., J. Am. Chem. Soc. 129:9594-5, 2007; Leung et al., Nat. Biotech. 21:687-91, 2003; and Greenbaum et al., Mol. Cell. Proteomics 1:60-68, 2002.
(§2) Competitive activity-based protein profiling (ABPP) experiments. In vitro inhibitor selectivity was examined using a competitive ABPP method as described in the art (e.g., Li et al., J. Am. Chem. Soc. 129:9594-5, 2007; and Leung et al., Nat. Biotech. 21:687-91, 2003). Briefly, mouse brain membrane proteomes, prepared as described herein, were diluted to 1 mg/ml in PBS and pre-incubated with varying concentrations of inhibitors (1 nM to 10 μM) for 30 min at 37° C. prior to the addition of a FP-rhodamine at a final concentration of 2 μM in a 50 μl of total reaction volume. After 30 min at room temperature, the reactions were quenched with 4×SDS-PAGE loading buffer, boiled for 5 min at 90° C., subjected to SDS-PAGE, and visualized in-gel using a flatbed fluorescence scanner.
(§3) Every 10 min, 50 ul of the reaction was removed and treated with FP-rhodamine (2 μM) for 2 min, quenched with 4×SDS-PAGE loading buffer, and boiled for 5 min at 90° C. The combined reactions were subjected to SDS-PAGE and visualized in-gel using a flatbed fluorescence scanner. The percentage activity remaining was determined by measuring the integrated optical density corresponding to the MAGL or FAAH bands and the results were fit to an exponential curve to determine the pseudo-first order rate constants.

FAAH = biological target: T2, FAAH (Mus musculus, UniProt O08914); test: Competitive ABPP, mouse brain membrane proteome; format: biochemical
T2 construct: from tissue; host or cells: mouse brain membrane fraction
T2 sequence (O08914 1-579): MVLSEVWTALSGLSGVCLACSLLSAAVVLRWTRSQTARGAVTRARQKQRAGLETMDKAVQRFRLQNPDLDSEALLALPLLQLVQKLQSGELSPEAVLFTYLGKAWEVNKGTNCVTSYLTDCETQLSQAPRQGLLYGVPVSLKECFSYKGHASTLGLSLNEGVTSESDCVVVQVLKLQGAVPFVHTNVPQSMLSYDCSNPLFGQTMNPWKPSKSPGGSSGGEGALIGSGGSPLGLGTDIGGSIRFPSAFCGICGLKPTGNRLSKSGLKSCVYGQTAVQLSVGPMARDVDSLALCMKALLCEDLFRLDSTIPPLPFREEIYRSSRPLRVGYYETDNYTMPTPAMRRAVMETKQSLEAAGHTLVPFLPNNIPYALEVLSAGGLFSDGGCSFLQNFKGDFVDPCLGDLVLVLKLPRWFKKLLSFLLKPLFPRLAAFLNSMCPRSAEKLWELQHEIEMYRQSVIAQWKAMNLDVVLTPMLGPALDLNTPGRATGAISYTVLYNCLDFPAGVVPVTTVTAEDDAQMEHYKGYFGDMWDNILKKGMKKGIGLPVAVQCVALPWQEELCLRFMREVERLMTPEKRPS
Source text: as §1, §2, §3

MAGL [1] = biological target: T3, MAGL (Mus musculus, UniProt O35678); test: Competitive ABPP, mouse brain membrane proteome; format: biochemical
T3 construct: from tissue; host or cells: mouse brain membrane fraction (C57Bl/6 mice for the in vivo studies)
T3 sequence (O35678 1-303): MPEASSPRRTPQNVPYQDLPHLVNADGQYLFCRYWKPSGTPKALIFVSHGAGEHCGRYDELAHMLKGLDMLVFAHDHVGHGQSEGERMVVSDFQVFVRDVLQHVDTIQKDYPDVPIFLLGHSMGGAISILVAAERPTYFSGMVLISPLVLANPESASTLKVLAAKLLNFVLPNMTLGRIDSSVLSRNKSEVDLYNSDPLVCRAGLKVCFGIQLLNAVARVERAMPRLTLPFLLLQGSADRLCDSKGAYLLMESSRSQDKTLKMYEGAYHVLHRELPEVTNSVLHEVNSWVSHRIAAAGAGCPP
Source text: as §1, §2, §3

MAGL [2] = biological target: T4, MAGL (Homo sapiens, UniProt Q99685); test: shRNA knockdown of MAGL, activity by ABPP and C20:4 MAG hydrolysis; format: cell-based; settings: aggressive cancer lines, ABPP
T4 construct: endogenous in cells; host or cells: human cancer lines (C8161, MUM2B, MUM2C, SKOV3, OVCAR3, 231MFP, MCF7)
T4 sequence (Q99685 1-303): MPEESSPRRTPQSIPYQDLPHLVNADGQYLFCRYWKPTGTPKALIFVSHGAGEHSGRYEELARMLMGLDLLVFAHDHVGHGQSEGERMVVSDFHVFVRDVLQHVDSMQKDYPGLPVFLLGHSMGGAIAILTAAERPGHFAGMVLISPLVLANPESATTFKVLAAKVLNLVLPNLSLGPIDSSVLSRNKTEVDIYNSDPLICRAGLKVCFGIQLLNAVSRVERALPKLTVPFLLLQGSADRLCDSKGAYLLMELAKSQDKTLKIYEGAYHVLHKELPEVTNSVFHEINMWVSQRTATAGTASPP
Description: ABPP and hydrolytic activity assays of cancer cell proteomes. Identification and comparative quantitation of serine hydrolase activities from cancer cell proteomes by ABPP-MudPIT or gel-based ABPP was conducted as previously described using FP-biotin (5 μM) and FP-rhodamine (2 μM), respectively (Jessani et al., Proc. Natl. Acad. Sci. U.S.A 99:10335-10340, 2002; and Jessani et al., Nat. Methods 2:691-697, 2005). C20:4 MAG hydrolytic activity assays were performed as described previously (Blankman et al., Chem. Biol. 14:1347-1356, 2007). For ABPP experiments, cell lysate proteomes were treated with 2 μM FP-rhodamine for 30 min at room temperature (50 μl total reaction volume). Reactions were quenched with one volume of standard 4×SDS/PAGE loading buffer (reducing), separated by SDS/PAGE (10% acrylamide), and visualized in-gel with a Hitachi FMBio IIe flatbed fluorescence scanner (MiraiBio). Integrated band intensities were calculated for the labeled proteins and averaged from three independent cell samples to determine the level of each enzyme activity. IC50 values were determined from dose-response curves from three trials at each inhibitor concentration by using SigmaPlot 10.0. MAGL expression was also assessed by western blotting using standard procedures.
RNA interference studies in human cancer cell lines. […]

[3] = test system: human cancer cell lines (C8161, SKOV3, 231MFP, MUM2C, OVCAR3); test: Lipid measurements in cancer cells; format: cell-based; settings: aggressive melanoma, ovarian, breast cancer cells
Description: Pharmacological inhibition of MAGL in cancer cells. Pharmacological inhibition studies were conducted as described previously (Chiang et al., Chem. Biol. 13:1041-1050, 2006). Cancer cells were maintained in RPMI medium 1640 with 10% (v/v) fetal calf serum at 37° C. in a humidified atmosphere of 5% CO2/95% air. At 80% confluency, cells were trypsinized and counted using a hemocytometer, and 1×10^6 cells were plated in 6 cm dishes (subconfluent). […] After incubation for 4 hr, the cells were harvested and analyzed by ABPP or LC-MS.
Lipid measurements in cancer cells. Lipid measurements were conducted similarly to protocols described previously (Chiang et al., 2006; supra). Cancer cells were grown in serum-free media for 4 hrs to minimize the contribution of serum-derived lipids to the cellular profiles. The cells (1×10^6 cells/6 cm dish, 80% confluency) were washed with twice with phosphate buffer saline (PBS), isolated by centrifugation at 1,400×g, and dounce-homogenized in 4 ml of a 2:1:1 mixture of chloroform:methanol:Tris buffer. Samples were homogenized in the presence of the following synthetic standards: C12:0 MAGE (10 nmol), C15:0 FFA (10 nmol). Organic and aqueous layers were separated by centrifugation at 2000×g for 5 min and the organic layer was collected. The aqueous layer was acidified (for metabolites such as LPA) by adding 5% formic acid, followed by the addition of 2 ml chloroform. The mixture was vortexed, and the organic layers were combined, dried down under N2 and dissolved in 100 μl chloroform, of which 30 μl was analyzed by LC-MS.
LC-MS analysis was performed by using an Agilent 1100 LC-MSD SL instrument. […] Mobile phase A was composed of a 95:5 ratio of water:methanol, and mobile phase B consisted of 2-propanol, methanol, and water in a 60:35:5 ratio. Solvent modifiers such as 0.1% formic acid and 0.1% ammonium hydroxide were used to assist ion formation as well as to improve the LC resolution in both positive and negative ionization modes, respectively. The flow rate for each run started at 0.1 ml/min for 5 min, to alleviate backpressure associated with injecting chloroform. The gradient started at 0% B and increased linearly to 100% B over the course of 45 min with a flow rate of 0.4 ml/min, followed by an isocratic gradient of 100% B for 17 min at 0.5 ml/min before equilibrating for 8 min at 0% B with a flow rate of 0.5 ml/min. MS analysis was performed with an electrospray ionization (ESI) source. The capillary voltage was set to 3.0 kV, and the fragmentor voltage was set to 100 V. The drying gas temperature was 350° C., the drying gas flow rate was 10 L/min, and the nebulizer pressure was 35 psi.
Lipidomic analysis was performed in both targeted and untargeted mode by LC-MS analysis. Standard lipid classes were quantitated by targeting using selected ion monitoring (SIM) (except for very high-abundance metabolites which were quantitated by untargeted analysis) and identities of metabolites were confirmed by coelution of metabolites with their respective standards and mass accuracy to within 10 ppm as determined with an accurate mass Agilent 6520 Accurate Mass QTOF-MS-MS. These lipids were quantified by measuring the area under the peak and were normalized to an internal standard (C12:0 MAGE in positive mode or C15:0 FFA in negative mode). […]

Compound | effect on ABHD6 in competitive ABPP screen (FIG. 1B) (ABHD6) | effect on FAAH in competitive ABPP screen (FIG. 1B) (FAAH) | effect on MAGL in competitive ABPP screen (FIG. 1B) (MAGL [1]) | other serine hydrolase activities (MAGL [2]) | FFA levels in shMAGL cells [3] | MAG levels in shMAGL cells [3]
O=C(Oc1ccc([N+](=O)[O-])cc1)N1CCN(C(c2ccc(F)cc2)c2ccc(F)cc2)CC1 [WWL162] | preserve potency | greatly reducing activity | preserve potency | – | – | –
shMAGL2: short hairpin RNA oligonucleotide for MAGL, 5′-AGACTACCCTGGGCTTCCT-3′ (SEQ ID NO:2) (expressed or natural sequence) | – | – | – | unaffected | corresponding reductions | significant elevations
